# Results taken from US20100015058A1, “RADIOLABELED BBN-RGD HETERODIMERS FOR CANCER TARGETING” (STANFORD UNIVERSITY, priority 2008, published 2010).
# Key:
# PC-3 tumor cells = test: Cell uptake assay on PC-3 tumor cells; assay type: cell-based, human; conditions: PC-3 cells; for cell uptake: 37° C.
# Protocol: In the cell uptake experiment, PC-3 cells were seeded into 12-well plates at a density of 5×10^5 cells per well for overnight incubation. Cells were rinsed 3 times with phosphate-buffered saline (PBS), followed by the addition of ^18F-FB-RGD, ^18F-FB-BBN, or ^18F-BBN-RGD to the cultured wells in triplicate (about 2 μCi/well). […] The cell lysate was collected in measurement tubes for counting. The cell uptake was normalized in terms of added radioactivity.
# The cell uptake studies were performed as we have previously described with some modifications (Chen et al., Mol Imaging Biol. (2004) […]; Cai et al., (2006) J. Nuc. Med. 47: 1172-1180, incorporated herein by reference in their entireties). Briefly, PC-3 cells were seeded into 12-well plates at a density of 5×10^5 cells per well and incubated (about 18 kBq/well) with ^68Ga-labeled tracers at 37° C. for 15, 30, 60, and 120 min. Tumor cells were then washed three times with chilled PBS and harvested by trypsinization with 0.25% trypsin/0.02% EDTA (Invitrogen). The cell suspensions were collected and measured in a y counter (Packard, Meriden, Conn.). The cell uptake was expressed as the percent added dose (% AD) after decay correction. Experiments were performed twice with triplicate wells. For efflux studies, ^68Ga-labeled tracers (about 18 kBq/well) were first incubated with PC-3 cells in 12-well plates for 1 h at 37° C. to allow internalization. Then cells were washed twice with PBS, and incubated with cell culture medium for 15, 30, and 60 min. After washing three times with PBS, cells were harvested by trypsinization with 0.25% trypsin/0.02% EDTA. The cell suspensions were collected and measured in a γ counter. Experiments were performed twice with triplicate wells. Data are expressed as percent added dose after decay correction.
# [1] = Small-animal PET of MDA-MB-435 tumor-bearing mice; conditions: female, athymic nude, mouse, in vivo, iv, total radioactivity, MDA-MB-435 tumor uptake
# [2] = MicroPET of T47D tumor-bearing mice; assay type: in vivo; conditions: female, nude, mouse, T47D tumor, iv, total radioactivity, orthotopic model
# From the text: The MDA-MB-231, MDA-MB468, BT474, BT-20, T47D, MCF-7 and MDA-MB435 human breast cancer cell lines were all obtained from the American Type Culture Collection (ATCC) and maintained under standard conditions according to ATCC. The MDA-MB435 tumor model was established by orthotopic injections of 5×10^6 cells into the right mammary fat pad of female athymic nude mice. For T47D tumor model establishment, the female nude mice were first subcutaneously implanted with 60-day release 17β-estradiol pellets (Innovative Research of America, Sarasota, Fla.) in the left neck. One day after the estradiol implantation, 1×10^7 T47D cells were orthotopically injected into the right mammary fat pad of the nude mice. The mice were subjected to microPET studies when the tumor volume reached 100-300 mm^3 (2-3 weeks for MDA-MB-435, and 4-5 wk for T47D).
# Quantification of tumor and major organ activity accumulation in the microPET scans was realized by measuring the regions of interest (ROIs) that encompassing the entire organ on the coronal images.
# [3] = Small-animal PET of PC-3 tumor-bearing mice; conditions: mouse, in vivo, iv, total radioactivity; for tissue to tissue ratio at 2 h: T/NT ratio
# Protocol: (a) PET scans and image analysis were performed using a micro-PET R4 rodent model scanner (Siemens Medical Solutions) as reported by Li et al., J. Nucl. Med. (2007) 48: 1162-1171 and Wu et al., J Nucl. Med. (2005) 46: 1707-1718, both of which are incorporated herein by reference in their entireties). […] Five-minute static PET images were then acquired at 0.5, 1, and 2 h after injection. The images were reconstructed by a 2-dimensional ordered-subsets expectation maximum (OSEM) algorithm. No attenuation or scatter correction was applied. […] The 5-min static PET scans were then acquired at 1 hr after injection. For each small-animal PET scan, regions of interest (ROIs) were drawn over the tumor, normal tissue, and major organs by using vendor software (ASI Pro 5.2.4.0) on decay-corrected whole-body coronal images. The average radioactivity concentration (accumulation) within a tumor or an organ was obtained from mean pixel values within the multiple ROI volume, which were converted to counts/mL/min using a conversion factor. Assuming a tissue density of 1 g/mL, the ROIs were converted to counts/g/min, and then divided by the administered activity to obtain an imaging ROI-derived percentage injected dose per gram of tissue (% ID/g).
# For dynamic PET, 30-min scans (1×30 s, 4×1 min, 1×1.5 min, 4×2 min, 5×3 min; total 15 frames) were started 1 min after injection, and two 5-min static PET images were also acquired at 1 h and 2 h after injection. […] For each small-animal PET scan, regions of interest (ROIs) were drawn over the tumor, normal tissue, and major organs using vendor software ASI Pro 5.2.4.0 on decay-corrected whole-body coronal images. The maximum radioactivity concentrations (accumulation) within a tumor or an organ were obtained from mean pixel values within the multiple ROI volume, and were converted to megabecquerels per milliliter per minute using a conversion factor. These values were then divided by the administered activity to obtain (assuming a tissue density of 1 g/ml) an image ROI-derived percent injected dose per gram (% ID/g).
# The images were reconstructed using a 2-dimensional ordered-subsets expectation maximum algorithm without attenuation or scatter correction.
# For each small-animal PET scan, regions of interest were drawn over each tumor, over normal tissue, and over major organs using vendor software (ASI Pro, version 5.2.4.0) on decay-corrected whole-body coronal images. The maximum radioactivity concentration (accumulation) within a tumor or an organ was obtained from the mean pixel values within the multiple-region-of-interest volume, which were converted to MBq/mL/min using a conversion factor. Assuming a tissue density of 1 g/mL, the regions of interest were converted to MBq/g/min and then divided by the administered activity to obtain an imaging region-of-interest-derived percentage injected dose (% ID)/g.
# [4] = MicroPET blood and normal organ uptake in T47D and MDA-MB-435 tumor-bearing nude mice; conditions: for tissue uptake at 2 h / tissue uptake at 0.5 h / tissue uptake at 1 h: nude, mouse, iv, total radioactivity
# From the text: The T47D or MDA-MB435 tumor uptake is expressed as the average of each tracer in four mice, while the normal organ uptake is expressed as the average of each tracer in eight mice (four T47D tumor-bearing mice and four MDA-MB-435 tumor-bearing mice per tracer).
# [5] = male, athymic nude, 3.7 MBq, PC-3 tumor uptake
# [6] = male, athymic nude, 3.7 MBq, PC-3 tumor uptake, dynamic scan
# [7] = male, athymic nude, 3.7 MBq, PC-3 tumor uptake, static scan after dynamic scan
compound,measurement,setting,value
CSCC[C@H](NC(=O)[C@H](CC(C)C)NC(=O)[C@H](Cc1c[nH]cn1)NC(=O)CNC(=O)[C@@H](NC(=O)[C@H](C)NC(=O)[C@H](Cc1c[nH]c2ccccc12)NC(=O)[C@H](CCC(N)=O)NC(=O)CCCCCNC(=O)CC[C@H](NC(=O)COCCOCCOCCNC(=O)c1ccc([18F])cc1)C(=O)NCCCC[C@@H]1NC(=O)[C@@H](Cc2ccc(O)cc2)NC(=O)[C@H](CC(=O)O)NC(=O)CNC(=O)[C@H](CCCNC(=N)N)NC1=O)C(C)C)C(N)=O [^18F-FB-PEG3-RGD-BBN],inhibition of cell uptake by BBN,"PC-3 tumor cells; 4° C., 60 min, blocking with Aca-BBN(7-14)",83.67±2.09%
same,inhibition of cell uptake by RGD+BBN,"PC-3 tumor cells; 4° C., 60 min, blocking with both peptides",91.97±0.14%
same,inhibition of cell uptake by RGD,"PC-3 tumor cells; 4° C., 60 min, blocking with c(RGDyK)",17.55±8.89%
same,cell uptake,PC-3 tumor cells; 15 min,4.72±0.37%
same,cell uptake,PC-3 tumor cells; 30 min,5.51±0.11%
same,cell uptake,PC-3 tumor cells; 60 min,5.87±0.15%
same,cell uptake,PC-3 tumor cells; 120 min,6.65±0.34%
same,internalization (uptake at 37° C. minus uptake at 4° C.),"PC-3 tumor cells; within 30 min of incubation, plateaus afterwards",about 3.5%
same,tissue uptake at 0.5 h,[1],2.72 ± 0.8 %ID/g
same,tissue uptake at 1 h,[1],1.59 ± 0.65 %ID/g
same,tissue uptake at 2 h,[1],0.84 ± 0.22 %ID/g
same,tissue uptake at 0.5 h,[2]; 0.5 h,2.96 ± 0.53 %ID/g
same,tissue uptake at 1 h,[2]; 1 h,1.81 ± 0.34 %ID/g
same,tissue uptake at 2 h,[2]; 2 h,0.91 ± 0.12 %ID/g
same,tissue uptake at 1 h,"[3]; male, athymic nude, 10 mg/kg, PC-3 tumor uptake with RGD blocking, 1 h, 3.7 MBq, co-injected c(RGDyK) 10 mg/kg",2.19 ± 0.97 %ID/g
same,tissue uptake at 0.5 h,[3]; [5],6.35 ± 2.52 %ID/g
same,tissue uptake at 1 h,[3]; [5],4.41 ± 0.71 %ID/g
same,tissue uptake at 2 h,[3]; [5],2.47 ± 0.81 %ID/g
same,tissue uptake at 5 min,[3]; [6],3.54 %ID/g
same,tissue uptake at 0.25 h,[3]; [6],4.86 %ID/g
same,tissue uptake at 0.5 h,[3]; [6],5.64 %ID/g
same,tissue uptake at 1 h,[3]; [7],4.08 %ID/g
same,tissue uptake at 2 h,[3]; [7],2.88 %ID/g
same,tissue uptake at 0.5 h,"[3]; male, athymic nude, 3.7 MBq, liver uptake (highest)",< 2 %ID/g
same,tissue uptake at 1 h,"[3]; male, athymic nude, PC-3 tumor uptake with BBN blocking, 1 h, 3.7 MBq, co-injected Aca-BBN(7-14) 15 mg/kg",1.58 ± 0.52 %ID/g
same,tissue uptake at 1 h,"[3]; male, athymic nude, PC-3 tumor uptake with RGD+BBN blocking, 1 h, 3.7 MBq, co-injected RGD 10 mg/kg and BBN 15 mg/kg",0.43 ± 0.08 %ID/g
same,tissue to tissue ratio at 2 h,[3]; tumor/blood,8.1 ± 1.14
same,tissue to tissue ratio at 2 h,[3]; tumor/kidneys,1.44 ± 0.05
same,tissue to tissue ratio at 2 h,[3]; tumor/liver,6.43 ± 0.81
same,tissue to tissue ratio at 2 h,[3]; tumor/muscle,10.5 ± 0.75
same,Liver uptake,"[4]; average of eight mice, 0.5 h",1.13±0.43 % ID/g
same,Kidney uptake,"[4]; average of eight mice, 2 h",0.74±0.19 % ID/g
same,tissue uptake at 2 h,"[4]; female, kidney",0.74 ± 0.19 %ID/g
same,tissue uptake at 0.5 h,"[4]; female, liver",1.13 ± 0.43 %ID/g
same,tissue uptake at 0.5 h,[4]; blood,0.78 ± 0.37 %ID/g
same,tissue uptake at 1 h,[4]; blood,0.41 ± 0.11 %ID/g
same,tissue uptake at 2 h,[4]; blood,0.18 ± 0.02 %ID/g
same,tissue uptake at 0.5 h,[4]; kidney,2.77 ± 0.78 %ID/g
same,tissue uptake at 1 h,[4]; kidney,1.56 ± 0.32 %ID/g
same,tissue uptake at 1 h,[4]; liver,0.56 ± 0.21 %ID/g
same,tissue uptake at 2 h,[4]; liver,0.23 ± 0.07 %ID/g
same,tissue uptake at 0.5 h,[4]; muscle,0.81 ± 0.23 %ID/g
same,tissue uptake at 1 h,[4]; muscle,0.33 ± 0.17 %ID/g
same,tissue uptake at 2 h,[4]; muscle,0.15 ± 0.05 %ID/g
